The values below come from US20240148821A1, “PHARMACEUTICAL USE OF CYCLIC PEPTIDE COMPOUND” (CHUGAI SEIYAKU KABUSHIKI KAISHA, priority 2021, published 2024).

Numbered stars: 1 amine (or outer) side, 2 acyl side, 3 side chain; on linkers, the order of the positions; unused ones are H or OH. Bridge positions count the residues as written; N and C are the ends. Square brackets hold non-standard residues; d marks the D form. Peptide text beside a SMILES is read from it. * marks the point of attachment. hPhe(3-Cl-4-CF3) = N[C@@H](CCc1ccc(C(F)(F)F)c(Cl)c1)C(=O)O; hPhe(3-F,4-CF3) = N[C@@H](CCc1ccc(C(F)(F)F)c(F)c1)C(=O)O; hPhe(4-CF3) = N[C@@H](CCc1ccc(C(F)(F)F)cc1)C(=O)O; NEtPhe(4-Cl) = CCN[C@@H](Cc1ccc(Cl)cc1)C(=O)O; NMePhe(4-CN) = CN[C@@H](Cc1ccc(C#N)cc1)C(=O)O; NMePhe(4-Cl) = CN[C@@H](Cc1ccc(Cl)cc1)C(=O)O; NMePhe(4-Me) = CN[C@@H](Cc1ccc(C)cc1)C(=O)O; NMePhe(2-Cl) = CN[C@@H](Cc1ccccc1Cl)C(=O)O; NMedβ3hAla = C[C@H](CC(=O)[*:2])N(C)[*:1]; NMeGly(cPent) = CN[C@H](C(=O)O)C1CCCC1; Phe(3-I) = N[C@@H](Cc1cccc(I)c1)C(=O)O; NMeCha = CN[C@@H](CC1CCCCC1)C(=O)O; NMeGly(cPr) = CN[C@H](C(=O)O)C1CC1; NMeChg = CN[C@H](C(=O)O)C1CCCCC1; NMeF = CN[C@@H](Cc1ccccc1)C(=O)O; NMeβAla = CN(CCC(=O)[*:2])[*:1]; NMeD = CN[C@@H](CC(=O)O)C(=O)O; NMeL = CN[C@@H](CC(C)C)C(=O)O; NMeV = CN[C@H](C(=O)O)C(C)C; Trifluoroethyl = FC(F)(F)C*; d(β3hA) = C[C@@H](N)CC(=O)O; NMeA = CN[C@@H](C)C(=O)O; NMeAib = CNC(C)(C)C(=O)O; Nle = CCCC[C@H](N)C(=O)O; Piperidide = C1CCN(*)CC1; Pyrrolidide = C1CCN(*)C1; Ac5c = NC1(C(=O)O)CCCC1; Aze = O=C(O)[C@@H]1CCN1; Ac4c = NC1(C(=O)O)CCC1; Sar = CNCC(=O)O

For this assay, the system named is Human pancreatic cancer cell line AsPC-1 (G12D mutation Kras). Nature of the assay: AsPC-1 cell growth inhibition (AsPC-1 CGI). It counts as cell-based. To be noted: read-out: AsPC-1 cell growth inhibition, 50% growth inhibitory concentration (IC50 value); 96 hours, CellTiter-Glo, values classified in ranges.
Description: Test compounds were serially dilated with dimethyl sulfoxide, and 200 nL was then dispensed to a U-bottom 96-well plate using Labcyte Echo. […] The cell suspension was dispensed to a. plate containing a test compound at 100 μL per well and incubated at 37° C. in a 5% carbon dioxide gas incubator. 96 hours later, 80 μL of CellTiter-Glo (Promega) was added to each well and fluorescence was measured.
`CC[C@H](C)[C@@H]1NC(=O)[C@H](CC(C)C)N(C)C(=O)C[C@@H](C(=O)N2CCCCC2)N(C)C(=O)[C@H](C(C)C)N(C)C(=O)C2(CCCC2)NC(=O)[C@@H]2CCCN2C(=O)[C@H](CCc2ccc(C(F)(F)F)c(Cl)c2)NC(=O)CN(C)C(=O)[C@H](Cc2ccc(C#N)cc2)N(C)C(=O)CN(C)C(=O)CN(C)C1=O` [Compound 867] ([NMeL]I[Sar][Sar][NMePhe(4-CN)][Sar][hPhe(3-Cl-4-CF3)]P[Ac5c][NMeV][NMeD]-Piperidide; lactam N-11): the IC50 was over 500 nM.
Under `CC[C@H](C)[C@@H]1NC(=O)[C@H](CC(C)C)N(C)C(=O)C[C@@H](C)N(C)C(=O)[C@H](C2CC2)N(C)C(=O)C2(CCCC2)NC(=O)[C@@H]2CCCN2C(=O)[C@H](CCc2ccc(C(F)(F)F)c(Cl)c2)NC(=O)CN(C)C(=O)[C@H](CC2CCCCC2)N(C)C(=O)CN(C)C(=O)CN(C)C1=O` [Compound 874] (cyclo([Ac5c][NMeGly(cPr)][NMedβ3hAla][NMeL]I[Sar][Sar][NMeCha][Sar][hPhe(3-Cl-4-CF3)]P)) stands over 500 nM; under `CCCC[C@@H]1NC(=O)[C@H](Cc2cccc(I)c2)NC(=O)CN(C)C(=O)[C@H](Cc2ccc(Cl)cc2)N(C)C(=O)CN(C)C(=O)CN(C)C(=O)[C@H]([C@@H](C)CC)NC(=O)[C@H](CC(C)C)N(C)C(=O)C[C@@H](C(=O)N2CCCCC2)N(C)C(=O)[C@H](CC(C)C)NC(=O)[C@H](Cc2ccc(C)cc2)N(C)C1=O` [Compound 876] ([NMeL]I[Sar][Sar][NMePhe(4-Cl)][Sar][Phe(3-I)][Nle][NMePhe(4-Me)]L[NMeD]-Piperidide; lactam N-11), over 500 nM.
For the compound `CC[C@H](C)[C@@H]1NC(=O)[C@H](CC(C)C)N(C)C(=O)CCN(C)C(=O)[C@H](C(C)C)N(C)C(=O)C2(CCCC2)NC(=O)[C@@H]2CCCN2C(=O)[C@H](CCc2ccc(C(F)(F)F)c(F)c2)NC(=O)CN(C)C(=O)[C@H](CC2CCCCC2)N(C)C(=O)CN(C)C(=O)CN(C)C1=O` [Compound 879] (cyclo([Ac5c][NMeV][NMeβAla][NMeL]I[Sar][Sar][NMeCha][Sar][hPhe(3-F,4-CF3)]P)), the IC50 was over 500 nM.
Under `CC(C)C[C@H]1C(=O)N[C@@H](COCC(F)(F)F)C(=O)N(C)CC(=O)N(C)CC(=O)N(C)[C@@H](CC2CCCCC2)C(=O)N(C)CC(=O)N[C@@H](CCc2ccc(C(F)(F)F)c(Cl)c2)C(=O)N2CCC[C@H]2C(=O)NC2(CCCC2)C(=O)N(C)[C@@H](C2CCCCC2)C(=O)N(C)[C@H](C(=O)N2CCCCC2)CC(=O)N1C` [Compound 894] ([NMeL]S(Trifluoroethyl)[Sar][Sar][NMeCha][Sar][hPhe(3-Cl-4-CF3)]P[Ac5c][NMeChg][NMeD]-Piperidide; lactam N-11) stands over 500 nM; under `CCCC[C@@H]1NC(=O)[C@H](CCc2ccc(C(F)(F)F)c(Cl)c2)NC(=O)CN(C)C(=O)[C@H](Cc2ccc(Cl)cc2)N(CC)C(=O)CN(C)C(=O)CN(C)C(=O)[C@H]([C@@H](C)CC)NC(=O)[C@H](CC(C)C)N(C)C(=O)C[C@@H](C(=O)N2CCCCC2)N(C)C(=O)[C@H](CC(C)C)NC(=O)C(C)(C)N(C)C1=O` [Compound 895] ([NMeL]I[Sar][Sar][NEtPhe(4-Cl)][Sar][hPhe(3-Cl-4-CF3)][Nle][NMeAib]L[NMeD]-Piperidide; lactam N-11), over 500 nM; under `CC[C@H](C)[C@@H]1NC(=O)[C@H](CC(C)C)N(C)C(=O)C[C@@H](C)N(C)C(=O)[C@H](CC(C)C)NC(=O)C(C)(C)N(C)C(=O)[C@H](CC(C)C)NC(=O)[C@H](CCc2ccc(C(F)(F)F)c(F)c2)NC(=O)CN(C)C(=O)[C@H](CC2CCCCC2)N(C)C(=O)CN(C)C(=O)[C@@H]2CCN2C1=O` [Compound 905] (cyclo([Aze][Sar][NMeCha][Sar][hPhe(3-F,4-CF3)]L[NMeAib]L[NMedβ3hAla][NMeL]I)), over 500 nM.
In the case of `CC[C@H](C)[C@@H]1NC(=O)[C@H](C)N(C)C(=O)C[C@@H](C(=O)N2CCCC2)N(C)C(=O)[C@H](C(C)C)N(C)C(=O)C2(CCC2)NC(=O)[C@H](Cc2ccccc2Cl)N(C)C(=O)[C@H](CCc2ccc(C(F)(F)F)c(Cl)c2)NC(=O)CN(C)C(=O)[C@H](CC2CCCCC2)N(C)C(=O)CN(C)C(=O)CN(C)C1=O` [Compound 906] ([NMeA]I[Sar][Sar][NMeCha][Sar][hPhe(3-Cl-4-CF3)][NMePhe(2-Cl)][Ac4c][NMeV][NMeD]-Pyrrolidide; lactam N-11), the IC50 was over 500 nM.
For `CC[C@H](C)[C@@H]1NC(=O)[C@H](CC(C)C)N(C)C(=O)C[C@@H](C(=O)N(C)C)N(C)C(=O)[C@H](C2CCCC2)N(C)C(=O)C2(CCCC2)NC(=O)[C@H](Cc2ccc(C)cc2)N(C)C(=O)[C@H](CCc2ccc(C(F)(F)F)c(Cl)c2)NC(=O)CN(C)C(=O)[C@H](CC2CCCCC2)N(C)C(=O)[C@@H]2CCN2C(=O)[C@H](C)N(C)C1=O` [Compound 908] ([NMeL]I[NMeA][Aze][NMeCha][Sar][hPhe(3-Cl-4-CF3)][NMePhe(4-Me)][Ac5c][NMeGly(cPent)][NMeD]-NMe2; lactam N-11), the IC50 is over 500 nM.
On to `CC[C@H](C)[C@@H]1NC(=O)[C@H](C)N(C)C(=O)C[C@@H](C)NC(=O)[C@H](C(C)C)N(C)C(=O)[C@H](Cc2ccccc2)N(C)C(=O)[C@H](CC(C)C)N(C)C(=O)[C@H](CCc2ccc(C(F)(F)F)cc2)NC(=O)CN(C)C(=O)[C@H](Cc2ccc(Cl)cc2)N(C)C(=O)[C@@H]2CCN2C(=O)CN(C)C1=O` [Compound 913] (cyclo([Aze][NMePhe(4-Cl)][Sar][hPhe(4-CF3)][NMeL][NMeF][NMeV][d(β3hA)][NMeA]I[Sar])), for which the IC50 is over 500 nM.
